Laboratory results from US4840950A, “4-arylcarbonyl-1-[(4-morpholinyl)-lower-alkyl]-1H-indoles” (Sterling Drug Inc., priority 1987, dated 1989).

What was measured:
[1] = test system: acetylcholine-induced abdominal constriction in mice; assay: acetylcholine-induced abdominal constriction test (Ach), antinociceptive activity; type: in vivo; settings: for ED50: Mus musculus, oral administration
From the text: (§1) The test procedures used to determine the analgesic activity of the compounds have been described in detail in the prior art and are as follows: The acetylcholine-induced abdominal constriction test, which is a primary analgesic screening test designed to measure the ability of a test agent to suppress acetylcholine-induced abdominal constriction in mice, described by Collier et al., Brit. J. Pharmacol, Chemotherap. 32, 295 (1968) and the rotorod performance test, which is a test designed to measure neurotoxicity of a test compound, described by Dunham et al., J. Pharm. Sci. 46, 206-209 (1957).
(§2) The 4-arylcarbonyl-1-[(4-morpholinyl)-lower-alkyl]-1H-indoles of the invention were tested in the acetylcholine-induced abdominal constriction test (Ach), which gives a measure of antinociceptive activity, and the rotorod assay (R.R.), which gives a measure of neurotoxicity and CNS impairment. The results, expressed in terms of the ED50 's obtained on oral administration in the acetylcholine test and as the ratio of the rotorod (R.R.):Ach ED50 's, are given in the following table: […]

[2] = rotorod performance test (R.R.), neurotoxicity and CNS impairment, as ratio to Ach; settings: mouse, in vivo; ratio of rotorod (R.R.):Ach ED50's; Ach ED50 on oral administration
From the text: as §1, §2

COc1ccc(C(=O)c2cccc3c2ccn3CCN2CCOCC2)cc1.Cl [Ex. 1A, 4-(4-methoxybenzoyl)-1-[2-(4-morpholinyl)ethyl]-1H-indole hydrochloride]
Ach (percent effect) ([1]; 93%/100(s.c.): at 100 (dose unit not given), s.c.): 93%
ED50 [1]: 46 mg/kg
selectivity ratio [2]: 3.1

COc1ccc(C(=O)c2cccc3c2ccn3CCCN2CCOCC2)cc1.Cl [Ex. 1B, 4-(4-methoxybenzoyl)-1-[3-(4-morpholinyl)propyl]-1H-indole hydrochloride]
ED50 [1]: 63 mg/kg
selectivity ratio [2]: 2.8

O=C(c1cccc2ccccc12)c1cccc2c1ccn2CCN1CCOCC1 [Ex. 1C, 1-[2-(4-morpholinyl)ethyl]-4-(1-naphthylcarbonyl)-1H-indole p-toluenesulfonate hydrate 3:1]
ED50 [1]: 16 mg/kg
